In patent US20250059231A1, “Protease inhibitors” (priority 2021, published 2025):
Where a SMILES comes first, the peptide text is derived from it. [ ]: non-standard residue; d: D form. The star is where a group is joined. Palmitoyl = CCCCCCCCCCCCCCCC(=O)*; hPhe = N[C@@H](CCc1ccccc1)C(=O)O

Each molecule was assayed on West Nile virus (assay: not given). Conditions: not given.
CCCCCCCCCCCCCCCC(=O)N[C@@H](CCCNC(=N)N)C(=O)N[C@@H](CC(N)=O)C(=O)N[C@@H](Cc1ccccc1)C(N)=O [compound 50] (Palmitoyl-Arg-Asn-Phe-NH2) showed an EC50 of at most 25 µM. CCCCCCCCCCCCCCCC(=O)N[C@@H](CCCNC(=N)N)C(=O)N[C@@H](C)C(=O)N[C@@H](CCc1ccccc1)C(N)=O [compound 51] (Palmitoyl-Arg-Ala-[hPhe]-NH2) gave an EC50 of at most 25 µM. CCCCCCCCCCCCCCCC(=O)N[C@@H](CCCNC(=N)N)C(=O)N[C@@H](CCC(N)=O)C(=O)N[C@@H](CCc1ccccc1)C(N)=O [compound 53] (Palmitoyl-Arg-Gln-[hPhe]-NH2) was tested, and the EC50 was at most 25 µM. CCCCCCCCCCCCCCCC(=O)N[C@@H](C)C(=O)N[C@@H](CCCNC(=N)N)C(=O)N[C@@H](CCC(N)=O)C(=O)N[C@@H](Cc1ccccc1)C(N)=O [compound 54] (Palmitoyl-ARQF-NH2) showed an EC50 of at most 25 µM.

The molecules below were run on ZIKV (assay: not given). Conditions: not given.
In the case of CCCCCCCCCCCCCCCC(=O)N[C@@H](CCCNC(=N)N)C(=O)N[C@@H](CC(N)=O)C(=O)N[C@@H](Cc1ccccc1)C(N)=O [compound 50] (Palmitoyl-Arg-Asn-Phe-NH2), the EC50 is reported as at most 10 µM. With CCCCCCCCCCCCCCCC(=O)N[C@@H](CCCNC(=N)N)C(=O)N[C@@H](C)C(=O)N[C@@H](CCc1ccccc1)C(N)=O [compound 51] (Palmitoyl-Arg-Ala-[hPhe]-NH2) the EC50 was at most 10 µM. For CCCCCCCCCCCCCCCC(=O)N[C@@H](CCCNC(=N)N)C(=O)N[C@@H](CCC(N)=O)C(=O)N[C@@H](CCc1ccccc1)C(N)=O [compound 53] (Palmitoyl-Arg-Gln-[hPhe]-NH2), the EC50 was at most 10 µM. In the case of CCCCCCCCCCCCCCCC(=O)N[C@@H](C)C(=O)N[C@@H](CCCNC(=N)N)C(=O)N[C@@H](CCC(N)=O)C(=O)N[C@@H](Cc1ccccc1)C(N)=O [compound 54] (Palmitoyl-ARQF-NH2), the EC50 is reported as at most 10 µM.

These molecules were tested against T1, DENV protease (Dengue virus type 2, UniProt P29990) (assay: biochemical). Conditions: at 1 μM; read-out: inhibition of DENV.
T1 construct: The virus-encoded dengue protease comprises the amino-terminal 180 amino acids of NS3 (NS3pro) of the polyprotein
T1 sequence (P29990 1398-1437): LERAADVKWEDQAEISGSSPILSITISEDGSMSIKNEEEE
T1 sequence (P29990 1476-1653): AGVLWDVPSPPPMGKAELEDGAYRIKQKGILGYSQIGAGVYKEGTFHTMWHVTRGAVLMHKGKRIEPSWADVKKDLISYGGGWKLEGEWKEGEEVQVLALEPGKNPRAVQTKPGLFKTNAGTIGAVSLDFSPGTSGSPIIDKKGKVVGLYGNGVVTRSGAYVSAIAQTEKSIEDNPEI
Method in brief: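 DENV protease (100 nM) was pre-incubated 15 min with inhibitors in 50 mM Tris-HCl pH 9.0, 10% ethylene glycol, 0.0016% Brij 58. FRET substrate (50 μM final) started the reaction, monitored 15 min as RFU/s slope. IC50 came from triplicate means versus concentration.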
CCCCCCCCCCCCCCCC(=O)N[C@@H](CCCNC(=N)N)C(=O)N[C@@H](CC(N)=O)C(=O)N[C@@H](Cc1ccccc1)C(N)=O [compound 50] (Palmitoyl-Arg-Asn-Phe-NH2) showed an inhibition at 1 µM of at least 20%. Work on CCCCCCCCCCCCCCCC(=O)N[C@@H](CCCNC(=N)N)C(=O)N[C@@H](C)C(=O)N[C@@H](CCc1ccccc1)C(N)=O [compound 51] (Palmitoyl-Arg-Ala-[hPhe]-NH2) yielded an inhibition at 1 µM of at least 20%.

Same assay, conditions: at 50 μM; read-out: inhibition of DENV
In the case of CCCCCCCCCCCCCCCC(=O)N[C@@H](CCCNC(=N)N)C(=O)N[C@@H](CC(N)=O)C(=O)N[C@@H](Cc1ccccc1)C(N)=O [compound 50] (Palmitoyl-Arg-Asn-Phe-NH2), the inhibition at 50 µM is reported as at least 25%. Work on CCCCCCCCCCCCCCCC(=O)N[C@@H](CCCNC(=N)N)C(=O)N[C@@H](C)C(=O)N[C@@H](CCc1ccccc1)C(N)=O [compound 51] (Palmitoyl-Arg-Ala-[hPhe]-NH2) yielded an inhibition at 50 µM of at least 25%. CCCCCCCCCCCCCCCC(=O)N[C@@H](CCCNC(=N)N)C(=O)N[C@@H](CCC(N)=O)C(=O)N[C@@H](CCc1ccccc1)C(N)=O [compound 53] (Palmitoyl-Arg-Gln-[hPhe]-NH2) gave an inhibition at 50 µM of at least 25%. Molecule CCCCCCCCCCCCCCCC(=O)N[C@@H](C)C(=O)N[C@@H](CCCNC(=N)N)C(=O)N[C@@H](CCC(N)=O)C(=O)N[C@@H](Cc1ccccc1)C(N)=O [compound 54] (Palmitoyl-ARQF-NH2) has an inhibition at 50 µM of at least 25%.

Each molecule was assayed against T2, ZIKA protease (Zika virus, UniProt Q32ZE1) (assay: biochemical). Conditions: not given.
T2 construct: a trypsin-like serine protease domain in the N-terminal region of the flaviviral NS3 proteins
T2 sequence (Q32ZE1 1499-1676): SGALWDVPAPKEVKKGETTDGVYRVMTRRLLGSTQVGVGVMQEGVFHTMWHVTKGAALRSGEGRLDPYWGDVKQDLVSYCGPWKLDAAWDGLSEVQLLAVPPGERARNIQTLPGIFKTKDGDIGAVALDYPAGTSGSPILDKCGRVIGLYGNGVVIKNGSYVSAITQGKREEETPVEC
T2 sequence (Q32ZE1 1421-1460): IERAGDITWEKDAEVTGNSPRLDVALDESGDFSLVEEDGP
Experimental: By catalytic activity of the protease, the cleaved substrate results in increased fluorescence that can be monitored using a BMG Labtech Fluostar OPTIMA Microtiter fluorescence plate reader (excitation wavelength of 320 nm and a monitored emission wavelength of 405 nm). Dilutions were made starting from 10 mM stock solutions in DMSO and final concentrations were measured in triplicates. The inhibitors were preincubated for 15 min with DENV protease (100 nM) in the assay buffer (50 mM Tris-HCl pH 9.0, ethylene glycol (10% v/v), and 0.0016% Brij 58). The enzymatic reaction was initiated by the addition of the FRET substrate (final concentration 50 μM) to obtain a final assay volume of 100 μL per well. The enzymatic activity was monitored for 15 min and determined as a slope of relative fluorescence units per second (RFU/s) for each concentration. The mean of the triplicates were plotted against the corresponding concentration in CDDVault to determine the IC50-values. Analogous procedures were used to determine the inhibitory potency on WNV (Kühl et al., J. Med. Chem. 2020, 63 (15): 8179-8197) and ZIKA protease (Nitsche et al., ACS Med. Chem. Lett. 2019 Feb. 14; 10 (2): 168-174). For selectivity screening of active candidates, similar biochemical assays with human serine proteases trypsin (Weigel et al., J. Med. Chem. 2015, 58 (19), 7719-7733.) and/or thrombin (Nitsche et al., J. Med. Chem. 2013, 56 (21), 8389-8403) were used.
In the case of CCCCCCCCCCCCCCCC(=O)N[C@@H](CCCNC(=N)N)C(=O)N[C@@H](CC(N)=O)C(=O)N[C@@H](Cc1ccccc1)C(N)=O [compound 50] (Palmitoyl-Arg-Asn-Phe-NH2), the IC50 is reported as at most 25 µM. CCCCCCCCCCCCCCCC(=O)N[C@@H](CCCNC(=N)N)C(=O)N[C@@H](C)C(=O)N[C@@H](CCc1ccccc1)C(N)=O [compound 51] (Palmitoyl-Arg-Ala-[hPhe]-NH2) gave an IC50 of at most 25 µM. CCCCCCCCCCCCCCCC(=O)N[C@@H](CCCNC(=N)N)C(=O)N[C@@H](CCC(N)=O)C(=O)N[C@@H](CCc1ccccc1)C(N)=O [compound 53] (Palmitoyl-Arg-Gln-[hPhe]-NH2) showed an IC50 of at most 25 µM. Molecule CCCCCCCCCCCCCCCC(=O)N[C@@H](C)C(=O)N[C@@H](CCCNC(=N)N)C(=O)N[C@@H](CCC(N)=O)C(=O)N[C@@H](Cc1ccccc1)C(N)=O [compound 54] (Palmitoyl-ARQF-NH2) has an IC50 of at most 25 µM.

Same assay, conditions: at 1 μM; read-out: inhibition of ZIKV
CCCCCCCCCCCCCCCC(=O)N[C@@H](CCCNC(=N)N)C(=O)N[C@@H](CC(N)=O)C(=O)N[C@@H](Cc1ccccc1)C(N)=O [compound 50] (Palmitoyl-Arg-Asn-Phe-NH2) gave an inhibition at 1 µM of at least 10%. Work on CCCCCCCCCCCCCCCC(=O)N[C@@H](CCCNC(=N)N)C(=O)N[C@@H](C)C(=O)N[C@@H](CCc1ccccc1)C(N)=O [compound 51] (Palmitoyl-Arg-Ala-[hPhe]-NH2) yielded an inhibition at 1 µM of at least 10%. CCCCCCCCCCCCCCCC(=O)N[C@@H](C)C(=O)N[C@@H](CCCNC(=N)N)C(=O)N[C@@H](CCC(N)=O)C(=O)N[C@@H](Cc1ccccc1)C(N)=O [compound 54] (Palmitoyl-ARQF-NH2) gave an inhibition at 1 µM of at least 10%.

Same assay, conditions: at 50 μM; read-out: inhibition of ZIKV
With CCCCCCCCCCCCCCCC(=O)N[C@@H](CCCNC(=N)N)C(=O)N[C@@H](CC(N)=O)C(=O)N[C@@H](Cc1ccccc1)C(N)=O [compound 50] (Palmitoyl-Arg-Asn-Phe-NH2) the inhibition at 50 µM was at least 65%. With CCCCCCCCCCCCCCCC(=O)N[C@@H](CCCNC(=N)N)C(=O)N[C@@H](C)C(=O)N[C@@H](CCc1ccccc1)C(N)=O [compound 51] (Palmitoyl-Arg-Ala-[hPhe]-NH2) the inhibition at 50 µM was at least 65%. Work on CCCCCCCCCCCCCCCC(=O)N[C@@H](CCCNC(=N)N)C(=O)N[C@@H](CCC(N)=O)C(=O)N[C@@H](CCc1ccccc1)C(N)=O [compound 53] (Palmitoyl-Arg-Gln-[hPhe]-NH2) yielded an inhibition at 50 µM of at least 65%. For CCCCCCCCCCCCCCCC(=O)N[C@@H](C)C(=O)N[C@@H](CCCNC(=N)N)C(=O)N[C@@H](CCC(N)=O)C(=O)N[C@@H](Cc1ccccc1)C(N)=O [compound 54] (Palmitoyl-ARQF-NH2), the inhibition at 50 µM was at least 65%.
